Results: US10954246B2, “Compound of EOC315 Mod.I crystal form and preparation method thereof” (Taizhou EOC Pharma Co., Ltd., priority 2017, dated 2021)
Where a name gives a salt, the structure may show the parent alone.

How the values were obtained:
[1] = Crystalline form after micronization (XRPD, DSC, HSM); format: physicochemical; settings: micronized, D90≤15 μm
Experimental: The pressure of the micronization equipment was set to be ≥0.65 MPa to obtain an EOC315 crystalline form micropowder, with a particle size D90≤15 μm. The X-ray powder diffraction, DSC, and HSM data of the micronized sample were measured using the aforementioned methods, and the results are shown in FIG. 2, FIG. 4, and FIG. 6.

[2] = test system: advanced gastric cancers or gastroesophageal junction (GEJ) cancers; assay: Efficacy study of EOC315 with capecitabine and cisplatinum in patients; format: in vivo, human; settings: combination with capecitabine and cisplatinum
Excerpt: After at most 6 cycles of cisplatinum treatment, both or either of capecitabine and EOC315 was delivered to a subject in a dosage previously used according to the toxic reaction conditions, until the disease progressed.
Forty-eight subjects in total were enrolled for this study. Forty-five subjects (94%) had tumor metastasis and thirty-five subjects (73%) had more than two metastatic sites thereinto. The livers of 26 subjects (54%) were involved due to the tumors. The major sites involved for the 26 subjects (54%) were gastroesophageal junctions, the major sites involved for 22 subjects (46%) were stomach, and the majority of the subjects got an ECOG score of 1 (n=41, 85%).
Thirty-nine subjects completed at least one course of treatment and got therapeutic effect evaluation. The objective response rate (ORR) was 67%. One subject (2.6%) achieved the complete response. […] It was evaluated that the objective response generally occurred in the previous two cycles of treatment and lasted for a long time, which was related closely to the duration of treatment received by the subjects. The anti-tumor effect was not related to tumor tissue type, the primary site, whether or not liver is involved, or the study center. Median progression-free survival (PFS) was 4.5 months. […] The median time to progression for patients showing tumor remission was 6.4 months. Median overall survival (OS) was estimated to be 7.8 months, and the 1-year survival rate was 33%.

[3] = molecular target: VEGFR-2 (Vascular Endothelial Growth Factor Receptor-2) tyrosine kinase (Homo sapiens, UniProt P35968); settings: cited from earlier work
Sequence of VEGFR-2 (Vascular Endothelial Growth Factor Receptor-2) tyrosine kinase (P35968 20-1356): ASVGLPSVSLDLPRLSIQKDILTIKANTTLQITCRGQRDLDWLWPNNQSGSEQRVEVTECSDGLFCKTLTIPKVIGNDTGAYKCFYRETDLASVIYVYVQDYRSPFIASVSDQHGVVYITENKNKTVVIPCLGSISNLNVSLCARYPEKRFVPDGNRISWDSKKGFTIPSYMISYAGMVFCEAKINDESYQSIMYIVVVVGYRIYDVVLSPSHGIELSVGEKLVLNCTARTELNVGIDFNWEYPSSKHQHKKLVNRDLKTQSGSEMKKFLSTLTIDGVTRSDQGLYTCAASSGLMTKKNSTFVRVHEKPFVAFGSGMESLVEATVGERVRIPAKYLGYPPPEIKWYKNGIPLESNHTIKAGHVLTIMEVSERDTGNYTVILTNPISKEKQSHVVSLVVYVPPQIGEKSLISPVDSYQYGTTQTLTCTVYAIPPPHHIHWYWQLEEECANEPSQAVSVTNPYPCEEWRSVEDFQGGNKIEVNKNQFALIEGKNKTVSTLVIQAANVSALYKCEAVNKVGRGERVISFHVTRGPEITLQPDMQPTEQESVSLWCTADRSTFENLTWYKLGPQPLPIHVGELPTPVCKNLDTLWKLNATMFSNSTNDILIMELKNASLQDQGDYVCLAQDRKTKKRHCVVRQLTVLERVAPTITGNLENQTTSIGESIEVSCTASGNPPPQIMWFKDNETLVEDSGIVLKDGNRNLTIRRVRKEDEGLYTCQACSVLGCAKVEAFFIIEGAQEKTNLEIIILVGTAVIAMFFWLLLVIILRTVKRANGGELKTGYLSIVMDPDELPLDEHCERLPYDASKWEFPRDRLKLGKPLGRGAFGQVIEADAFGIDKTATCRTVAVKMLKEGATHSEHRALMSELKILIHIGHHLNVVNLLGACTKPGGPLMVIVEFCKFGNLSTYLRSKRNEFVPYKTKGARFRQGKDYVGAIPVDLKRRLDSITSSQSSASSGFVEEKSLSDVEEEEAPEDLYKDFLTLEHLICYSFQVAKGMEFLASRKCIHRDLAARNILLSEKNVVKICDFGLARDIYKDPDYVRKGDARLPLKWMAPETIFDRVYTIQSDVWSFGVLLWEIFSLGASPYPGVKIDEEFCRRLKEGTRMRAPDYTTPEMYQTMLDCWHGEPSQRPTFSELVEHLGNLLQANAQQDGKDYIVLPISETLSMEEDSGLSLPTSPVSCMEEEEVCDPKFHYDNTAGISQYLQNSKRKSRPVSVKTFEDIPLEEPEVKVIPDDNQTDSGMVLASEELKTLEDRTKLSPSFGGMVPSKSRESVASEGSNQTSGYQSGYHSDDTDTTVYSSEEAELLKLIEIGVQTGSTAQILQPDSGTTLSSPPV

[4] = test system: PDGFR (Platelet-Derived Growth Factor Receptor) tyrosine kinase; settings: cited from earlier work

CNC(=O)c1cc(OCc2nnc(Nc3ccc(Cl)cc3)c3ccoc23)ccn1 [micronized EOC315]
crystalline form after micronization [1]: remained unchanged

CNC(=O)c1cc(OCc2nnc(Nc3ccc(Cl)cc3)c3ccoc23)ccn1 [EOC315, 4-(4-chloroanilino)-7-(2-methylaminocarbonyl-4-oxymethyl) pyridylfuro[2,3-d]pyridazine mesylate]
proportion of patients without tumor-progression within 6 months ([2]; Kaplan-Meier analysis): 52%
1-year survival rate [2]: 33%
median progression-free survival (PFS) [2]: 4.5 months
objective response rate (ORR) ([2]; 39 evaluable subjects): 67%
subjects with complete response ([2]; 39 evaluable subjects): 2.6%
subjects with partial response ([2]; 39 evaluable subjects): 64.1%
subjects with stable condition maintained more than 12 weeks ([2]; 39 evaluable subjects): 28.2%
median overall survival (OS) ([2]; estimated): 7.8 months
median time to progression ([2]; patients showing tumor remission): 6.4 months
IC50 [3]: 6 nM
IC50 [4]: 15 nM
